The text below walks through data of patent US20140336159A1, “METHODS FOR TREATING AND DIAGNOSING RESPIRATORY TRACT INFECTIONS” (PULMATRIX, INC., priority 2011, published 2014).

For experiment [1], the system named is LPS stimulated peritoneal macrophages (TRPV channels). As to the kind of experiment: Cytokine secretion by LPS stimulated macrophages treated with TRPV channel antagonists. It counts as cell-based, mouse. The text has this: The transient receptor potential V (TRPV) family of ion channels is sensitive to osmotic changes and has an intimate relationship with levels of intracellular calcium. […] In order to determine the influence of TRPV channels Ruthenium red, a potent, broad acting TRPV channel antagonist was used. […] The results can be seen in FIG. 20A. […] Following two hours, supernatants were collected for LUMINEX analysis of inflammatory cytokines. […] However, while treatment with SKF96365 did have an effect on LPS stimulated macrophages, it was not as pronounced as that of treatment with ruthenium red.

Another experiment relates to Influenza A/WSN/33/1. It counts as cell-based.
The test system of experiment [2] is LPS stimulated peritoneal macrophages. As to the kind of experiment: Cytokine secretion by LPS stimulated peritoneal macrophages. It counts as cell-based, mouse (C57BL/6). The conditions noted are these: mouse macrophages, 10 ng/ml LPS, 2 hours, salts 0-50 mM. The text has this: Macrophages represent a key component of the innate immune system. Alveolar macrophages are thought to play a central role in disease pathogenesis by secreting pro-inflammatory cytokines and chemokines in the context of both chronic obstructive pulmonary disease (COPD) and cystic fibrosis (CF), two respiratory illnesses involving airway inflammation. It was hypothesized that given the prominent role of alveolar macrophages in LPS induced lung inflammation, it may be possible that Ca^2+-ion containing formulations directly influence the inflammatory response of the macrophage after LPS exposure. In order to test this hypothesis in-vitro, murine peritoneal macrophages were isolated. C57BL/6 female mice were anesthetized using isofluorane inhalant. […] To confirm macrophage phenotype, a cytospin preparation was performed. Cells were cultured in DMEM:F12 overnight. The following day the media was removed and the macrophages were exposed to media supplemented with varying concentrations of LPS (1 ng/ml to 1 microgram/ml), a dose range of supplemental calcium chloride (5 mM to 50 mM) as well as a dose range of calcium chloride in the presence of LPS for 2 hours. After 2 hours in culture the media was collected for analysis of inflammatory cytokines using LUMINEX® Multiplex immunoassays (Invitrogen/Life Technologies, Grand Island, N.Y.) and BIO-PLEX MANAGER™ software (Version 6) (Bio-Rad, Hercules, Calif.). Presto blue or trypan blue assays were used to determine cell viability. […] The media content for 3 representative inflammatory mediators (IL-6, KC and TNF-alpha) cultured under LPS free conditions (unstimulated) as well as cells exposed to 1 ng/ml LPS were analyzed.
(§1) To determine the effects of alternating the cation in the calcium chloride salt, LPS stimulated human or mouse macrophages were exposed to alternative divalent and monovalent cations, magnesium chloride and sodium chloride, as well as an alternative […] anion, calcium lactate. Normal human monocytes were differentiated into macrophage derived monocytes in culture for 7 days as described in Example 16, and perotineal derived mouse macrophages were described in Example 15. Following two hours of incubation with LPS (10 ng/ml) and the appropriate salt concentration, supernatants were collected for LUMINEX protein analysis of inflammatory cytokines.

The next experiment concerns human macrophages. Description: Cytokine secretion by LPS stimulated human monocyte-derived macrophages (normal and COPD-derived). Format: cell-based. The conditions noted are these: human macrophages, 10 ng/ml LPS, 2 hours, salts 0-50 mM. The procedure: Normal and COPD-derived human monocytes were differentiated into macrophage derived monocytes in culture for 7 days. Cells were thawed following storage in liquid nitrogen, and then plated at 2.0-2.5×10^5 cells/well (in 0.2 ml per well) in IMDM cell culture media containing 10% human serum and human GM-CSF (50 ng/ml). On day 7, assays were performed on the cells, using media containing serum but no GM-CSF. Cells were stimulated with 10 ng/ml LPS, and exposed to calcium chloride concentrations of either 10 or 25 mM. Following two hours, supernatants were collected for LUMINEX analysis of IL-8, IL-6, TNF alpha and MIP-1 alpha (FIG. 17A), IL-8 only for COPD (FIG. 17B). […] Calcium chloride reduced LPS induced inflammation in normal and COPD-derived human monocyte-derived macrophages.
as §1

In a further experiment the test system is neutrophils in the BAL. As to the kind of experiment: Ozone exposure mouse model. It counts as in vivo, mouse (BALB/cJ). The note with it: 100 microgram/kg intranasal. The procedure: Female wild-type (BALB/cJ) were obtained from The Jackson Laboratory (Bar Harbor. ME) at six weeks of age. Mice were treated with dry powder formulations Leucine (98% leucine, 2% sodium chloride) and Formulation II (75% calcium lactate, 20% leucine, 5% sodium chloride) in a temperature and humidity controlled room (30±5% RH and 20±2° C.) or administered liquid treatments of a p38 MAP kinase inhibitor (100 microgram/kg, Tocris SB203580), and USP-Grade Saline (0.9% NaCl), Cardinal Health via the intranasal route. Naïve mice were not exposed to dry powder treatment. One hour following the end of treatment, conscious mice were placed in a custom plastic exposure chamber (26 cm×16 cm×12 cm, Braintree Scientific) on a heated pad at 37° C. Ozone was generated via corona discharge using OZ-2AD Ozone Generator (Ozone Solutions, Hull, Iowa) and diluted with 2.0 LPM (liter per minute) of USP breathing air (MedTech, Medford, Mass.) to a concentration of 3 ppm. The concentration inside the exposure chamber was sampled continuously at 1.0 LPM using UV-106L Ozone Analyzer (Ozone Solutions, Hull, Iowa). Mice were exposed to ozone for 1 hour. Control mice were placed in static cages and exposed to ambient air for a duration matched to each ozone exposure. Mice were euthanized 4 hours following the end of the ozone or air exposure using a fatal dose of pentobarbital. BAL and cell counts were performed. […]

Consider `COc1ccc(CCCOC(Cn2ccnc2)c2ccc(OC)cc2)cc1` (centres unmarked) [SKF 96365], for which, in experiment [1] (5, 20, 50 micromolar, 10 ng/ml LPS, 2 hours), the “KC and IL-6 concentrations” value is reported as “dose dependent decrease”. The TNF alpha concentration result in experiment [1] (20 and 50 micromolar, 10 ng/ml LPS) was “reduced at the highest two doses”. For the same compound, the “decrease in KC concentration” value in experiment [1] (50 micromolar, 10 ng/ml LPS) worked out at 51%. Also, the “KC and TNF alpha reduction” value in experiment [1] (along with 10 mM calcium chloride, compared to calcium chloride alone) is recorded as “small increase”.
In the case of `CC(=O)N[C@H]1[C@H]([C@H](O)[C@H](O)CO)OC(C(=O)O)=C[C@@H]1N=C(N)N` [Zanamivir, zanamivir], in the experiment on Influenza A/WSN/33/1, the “viral infection / Influenza titer versus untreated (Air) control” value is “reduced viral infection in a dose responsive manner”.
In the case of `CC(O)C(=O)[O-].CC(O)C(=O)[O-].[Ca+2]` (centres unmarked) [calcium lactate], the “LPS induced inflammatory mediator secretion (KC, IL-6)” value in experiment [2] is given as “more profound effect”. The “LPS induced cytokine production (IL-8, IL-6)” value in the experiment with human macrophages is reported as “most profound effect”.
For `[Cl-].[Cl-].[Mg+2]` [magnesium chloride], in experiment [2], the “LPS induced inflammatory mediator secretion (KC, IL-6)” value is “some activity”. Moreover, in the experiment with human macrophages, the “LPS induced cytokine production (IL-8, IL-6)” value is recorded as “of lesser magnitude than calcium lactate but more potent than sodium chloride”.
As to `C[S+]([O-])c1ccc(-c2nc(-c3ccncc3)c(-c3ccc(F)cc3)[nH]2)cc1` (centres unmarked) [p38 MAP kinase inhibitor], the “pulmonary total cell response to ozone exposure” value in the experiment on neutrophils in the BAL is “significantly inhibited”.
On to `N.N.N.N.N.N.N.N.N.N.N.N.N.N.[Cl-].[Cl-].[Cl-].[Cl-].[Cl-].[Cl-].[O-2].[O-2].[Ru+3].[Ru+3].[Ru+4]` [ruthenium red], for which the “decrease in KC concentration” value in experiment [1] (in the presence of 10 mM calcium chloride, 1 ng/ml LPS) is given as “further enhanced”; in experiment [1] (ruthenium red alone (1, 5, 10, 20 micromolar), 1 ng/ml LPS, 2 hours) it was “more than 50%”.
For `[Cl-].[Na+]` [sodium chloride, reference compound], in experiment [2], the “LPS induced inflammatory mediator secretion (KC, IL-6)” value was “little influence”. Besides, the “LPS induced cytokine production (IL-8, IL-6)” value in the experiment on human macrophages is listed as “little influence”.
